Here are results for nine compounds from patent US20240174649A1, “CULLIN-RING E3 UBIQUITIN LIGASE 4 INHIBITOR COMPOUNDS AND METHODS OF THEIR USE” (ICAHN SCHOOL OF MEDICINE AT MOUNT SINAI, priority 2021, published 2024).

Where two headings read alike, the source gives them in different places.

In assay [1] the target is T1, ROC1-CUL1 CTD (Homo sapiens (Human), UniProt Q13616). Kind of assay: FRET K48 di-Ub synthesis assay. In kind it is biochemical. Here is the method: The high throughput screen (“HTS”) employed the FRET K48 di-Ub assay as established previously (Wu et al., “Suramin Inhibits Cullin-RING E3 Ubiquitin Ligases,” PNAS 113(14):E2011-2018 (2016), which is hereby incorporated by reference in its entirety) and was carried out at Memorial Sloan Kettering Cancer Center Core Screening Facility. For HTS, the assay was formatted using three reagent addition steps. Library compounds, stored in 10 mM stock plates (DMSO), were transferred into assay plates and each well contains a single compound at 100 μM in 1 μl 10% DMSO. The complete complement of proteins/enzymes (6.5 μl), containing Ub E1 (14 nM), E2 Cdc34 (124 nM), E3 ROC1-CUL1 CTD (0.2 μM), Ub C31-I555 (donor, 0.93 μM), and Ub C64-I647 (receptor, 1.62 μM), in the presence of 33 mM Tris-HCl (pH 7.4), 1.7 mM MgCl2, 0.33 mM DTT, and BSA (0.07 mg/ml), was added to each plate. The concentrations of all five proteins have been determined based on Km measurement as described previously (Wu et al., “Suramin Inhibits Cullin-RING E3 Ubiquitin Ligases,” PNAS 113(14):E2011-2018 (2016), which is hereby incorporated by reference in its entirety). To initiate ubiquitination, ATP (2.5 μl in 2.64 mM) was added and its final concentration was 0.66 mM. The concentration of ATP was set high to minimize identification of nucleotide analogues because the priority of the HTS is to find small molecule modulators specific for E3 ROC1-CUL1 CTD. In this setting, the concentration of compound and DMSO in a given well were 10 μM and 1%, respectively. After incubation at room temperature for 45 min, EDTA (30 mM) was added to terminate the reaction. The reaction was quantified based on the ratio of acceptor:donor fluorescence (excitation 515 nm; donor emission 570 nm; acceptor emission 670 nm) using a Victor high-throughput plate reader (Perkin Elmer).
T1 sequence (Q13616 411-776): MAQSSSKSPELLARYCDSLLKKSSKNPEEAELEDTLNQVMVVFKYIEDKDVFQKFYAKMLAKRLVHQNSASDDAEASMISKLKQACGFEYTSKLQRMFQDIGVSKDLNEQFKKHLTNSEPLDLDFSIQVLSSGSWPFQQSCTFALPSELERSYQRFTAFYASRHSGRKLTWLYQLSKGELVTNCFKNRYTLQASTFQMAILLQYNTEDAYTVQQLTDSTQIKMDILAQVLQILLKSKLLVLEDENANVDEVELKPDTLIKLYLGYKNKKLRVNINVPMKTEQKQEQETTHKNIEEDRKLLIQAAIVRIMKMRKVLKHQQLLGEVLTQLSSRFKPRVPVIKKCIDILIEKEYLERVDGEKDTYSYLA
T1 sequence (P62877 whole entry partner): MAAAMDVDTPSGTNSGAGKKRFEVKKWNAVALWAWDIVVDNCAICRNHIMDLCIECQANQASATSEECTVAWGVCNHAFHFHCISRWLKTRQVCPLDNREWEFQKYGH
(§1) The reaction mixture (15 μl) was assembled onto a 384-well microtiter plate. […] ATP (0.66 mM) was then added to the mix followed by a brief centrifugation to settle down the mixture. The resulting plate was incubated at 30° C. in the Synergy-H1 reader and the fluorescence signal was monitored. Ubiquitination was quantified based on the ratio of acceptor:donor fluorescence (excitation 515 nm; donor emission 570 nm, acceptor emission 670 nm).

Assay [2] has as its target T1, ROC1-CUL1 CTD. Kind of assay: Ligand binding by MST. Here is the method: (§2) E3 ligase complex (˜2 nmol) was labeled with fluorescent dye using Monolith NT Protein Labeling Kit Red-NHS (Nanotemper) in the presence of 20 mM MES pH 6.0 and 150 mM NaCl. Excess dye was removed using the included gravity flow column and eluted in storage buffer containing 20 mM Tris-HCl, pH 7.4, 150 mM NaCl, and 10% glycerol. The fluorescent E3 complex (˜0.01-0.06 μM) was mixed with increasing amount of compound in a buffer (20 μl) that contains phosphate-buffered saline, 0.1% TWEEN-20 and 2% prionex. Following incubation at room temperature for 30 min, the reaction mixture loaded into premium coated capillaries and analyzed in the Monolith NT.115 machine (Nanotemper). Thermophoresis was recorded for each sample and binding curve was generated and Kd was calculated using the included software. For reactions where significant ligand specific fluorescence quenching occurred (verified by manufacturer's SDS Denaturation-test protocol), the initial fluorescence quenching data was used directly to calculate the binding curve and Kd.

Another assay has as its target E3 (CUL1) (Homo sapiens (Human), UniProt Q13616). Kind of assay: E3 (CUL1) inhibition (Table 1). Format: biochemical. Here is the method: as §1
A further assay has as its target E3 (CUL4) (Homo sapiens (Human), UniProt Q13619). Kind of assay: E3 (CUL4) inhibition (Table 1). In kind it is biochemical. Here is the method: (§3) The reaction was incubated for 5 min at 37° C. […] The reaction was incubated for 5 min at room temperature. In the second step (chase), the completed Cdc34b-Ub thiol ester reaction mixture was combined with one third of the completed mono-ubiquitination mixture. The final volume was adjusted to 10 μl with a mix that contained 50 mM Tris-HCl (pH 7.4), 0.5 mM DTT, 0.1 mg/ml of BSA, 5 mM MgCl2, and 2 mM ATP. Compounds were added where indicated. The chase reaction was incubated for 10 min at 37° C. The reaction products were separated by 4-20% SDS-polyacrylamide gel electrophoresis. The reaction scheme was identical to the one described above for FIGS. 12A-B. […] The reaction products, separated by SDS-PAGE, were visualized and analyzed by phospho-imaging using Typhoon 9500 scanner.

The next assay has as its target ROC1-CUL4A (full length) (Homo sapiens (Human), UniProt Q13619). The experiment in a line: Ligand binding by MST. As to conditions: for Kd: read-out: E3 binding ROC1-CUL4A Kd. Here is the method: as §2
Another assay has as its system cancer cells. The experiment in a line: Apoptosis, Annexin V flow cytometry. To be noted: for induction of apoptosis: at 30 μM. In kind it is cell-based. Here is the method:
Cells (5×10^4) were seeded 24 hours before compound treatment. Compound was added to the culture media and cells were cultured with the compound for 48 hours. The treated cells were then transferred into 5 ml flow cytometry tubes and the well was washed once with PBS to collect any remaining cells. The cells were then pelleted at 500×g for 5 min with a Beckman CS-6KR centrifuge at 4° C. After removal of supernatant, the cells pellet was washed with Annexin V binding buffer (10 mM Hepes-NaOH, pH 7.4, 150 mM NaCl, 5 mM KCl, 1 mM MgCl2, and 1.8 mM CaCl2). Cells were pelleted once again and incubated in the dark with Annexin V-FITC (2 μg/ml) in binding buffer for 5 min then analyzed using LSRFortessa flow cytometer (BD).

The target of another assay is ROC1-CUL4A (Homo sapiens (Human), UniProt Q13619). The experiment in a line: 32P-Ub chain elongation by ROC1-CUL4A. The arrangement: concentration or dose not given beside the values. As to conditions: relative to KH-4-43. In kind it is biochemical. Here is the method: as §3
Sequence of ROC1-CUL4A (Q13619 39-759): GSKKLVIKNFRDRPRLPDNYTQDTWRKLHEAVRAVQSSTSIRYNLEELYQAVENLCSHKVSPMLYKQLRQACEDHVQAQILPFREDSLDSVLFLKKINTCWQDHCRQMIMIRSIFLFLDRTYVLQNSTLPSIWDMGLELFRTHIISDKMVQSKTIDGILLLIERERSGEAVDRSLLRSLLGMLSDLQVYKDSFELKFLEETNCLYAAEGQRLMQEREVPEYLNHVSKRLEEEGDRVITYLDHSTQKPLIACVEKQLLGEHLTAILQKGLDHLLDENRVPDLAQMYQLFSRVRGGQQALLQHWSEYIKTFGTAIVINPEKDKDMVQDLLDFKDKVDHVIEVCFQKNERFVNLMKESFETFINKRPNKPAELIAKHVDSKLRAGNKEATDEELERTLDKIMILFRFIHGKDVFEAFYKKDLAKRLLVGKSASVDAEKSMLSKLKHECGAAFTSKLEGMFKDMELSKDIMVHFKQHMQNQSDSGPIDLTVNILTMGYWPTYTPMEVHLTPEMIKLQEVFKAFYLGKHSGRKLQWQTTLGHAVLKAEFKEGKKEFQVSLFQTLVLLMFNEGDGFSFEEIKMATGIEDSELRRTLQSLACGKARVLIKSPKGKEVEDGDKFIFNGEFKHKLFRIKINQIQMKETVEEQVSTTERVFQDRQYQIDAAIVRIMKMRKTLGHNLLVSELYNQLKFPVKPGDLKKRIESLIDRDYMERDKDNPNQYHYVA
Sequence of ROC1-CUL4A (P62877 15-108 partner): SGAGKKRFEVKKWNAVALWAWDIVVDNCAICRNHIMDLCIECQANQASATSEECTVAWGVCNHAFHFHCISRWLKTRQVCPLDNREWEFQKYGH
The subject of the next assay is MV4-11 tumors. The experiment in a line: AML MV4-11 subcutaneous xenograft. As to conditions: G5, 3 mg/kg, QD, PO.
Where [3] appears, read: Table 5, MST, read-out: E3 binding Kd.

Sequence of ROC1-CUL4A (full length) (Q13619 39-759): as the sequence (Q13619 39-759) above
Sequence of ROC1-CUL4A (full length) (P62877 15-108 partner): as the sequence (P62877 15-108 partner) above
Sequence of E3 (CUL4) (Q13619 whole entry): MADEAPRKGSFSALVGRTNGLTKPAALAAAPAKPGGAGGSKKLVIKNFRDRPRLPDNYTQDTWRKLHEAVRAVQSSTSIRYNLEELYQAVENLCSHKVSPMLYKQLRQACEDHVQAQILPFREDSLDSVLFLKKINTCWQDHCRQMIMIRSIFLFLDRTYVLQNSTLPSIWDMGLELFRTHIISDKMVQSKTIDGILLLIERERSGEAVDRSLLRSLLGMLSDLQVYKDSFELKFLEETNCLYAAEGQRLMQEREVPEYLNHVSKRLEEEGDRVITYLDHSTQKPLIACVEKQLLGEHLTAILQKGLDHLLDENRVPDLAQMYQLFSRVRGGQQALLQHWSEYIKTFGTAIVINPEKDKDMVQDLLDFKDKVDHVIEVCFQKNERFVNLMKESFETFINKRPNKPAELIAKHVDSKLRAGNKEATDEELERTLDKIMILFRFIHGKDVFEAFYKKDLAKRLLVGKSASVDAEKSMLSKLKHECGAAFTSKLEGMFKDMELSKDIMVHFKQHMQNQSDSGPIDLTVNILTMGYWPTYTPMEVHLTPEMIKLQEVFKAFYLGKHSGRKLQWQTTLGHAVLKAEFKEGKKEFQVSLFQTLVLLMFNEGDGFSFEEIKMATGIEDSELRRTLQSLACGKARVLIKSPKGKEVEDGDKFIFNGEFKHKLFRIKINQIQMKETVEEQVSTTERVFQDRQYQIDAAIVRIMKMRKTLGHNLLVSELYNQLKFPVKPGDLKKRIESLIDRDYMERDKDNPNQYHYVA
Sequence of E3 (CUL4) (P62877 whole entry partner): as the sequence (P62877 whole entry partner) above
Sequence of E3 (CUL1) (Q13616 whole entry): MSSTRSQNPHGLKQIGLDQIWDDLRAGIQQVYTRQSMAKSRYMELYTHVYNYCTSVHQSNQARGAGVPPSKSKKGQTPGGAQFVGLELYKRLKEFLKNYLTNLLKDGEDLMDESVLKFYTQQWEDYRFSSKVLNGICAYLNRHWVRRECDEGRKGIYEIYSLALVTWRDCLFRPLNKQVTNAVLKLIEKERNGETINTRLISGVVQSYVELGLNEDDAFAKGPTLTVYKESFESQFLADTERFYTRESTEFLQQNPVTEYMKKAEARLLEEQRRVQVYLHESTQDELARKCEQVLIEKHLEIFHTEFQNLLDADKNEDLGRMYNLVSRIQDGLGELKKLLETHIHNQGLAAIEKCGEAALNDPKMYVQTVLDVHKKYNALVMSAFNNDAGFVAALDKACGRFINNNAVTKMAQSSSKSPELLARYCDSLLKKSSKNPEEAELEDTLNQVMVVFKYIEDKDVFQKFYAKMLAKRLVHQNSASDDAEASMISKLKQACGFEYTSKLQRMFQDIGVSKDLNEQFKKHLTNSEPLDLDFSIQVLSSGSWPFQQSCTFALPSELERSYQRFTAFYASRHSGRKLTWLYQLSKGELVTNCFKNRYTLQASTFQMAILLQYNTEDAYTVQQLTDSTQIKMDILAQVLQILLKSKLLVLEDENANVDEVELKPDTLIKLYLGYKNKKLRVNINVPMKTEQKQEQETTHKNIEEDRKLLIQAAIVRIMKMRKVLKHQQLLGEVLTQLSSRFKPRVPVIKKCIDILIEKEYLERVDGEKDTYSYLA
Sequence of E3 (CUL1) (P62877 whole entry partner): as the sequence (P62877 whole entry partner) above

Regarding `O=c1c(Oc2ccccc2)c(C(F)(F)F)oc2cc(O)ccc12` [#33-7, 7-hydroxy-3-phenoxy-2-(trifluoromethyl)-4H-chromen-4-one], the “E3 inhibition IC50” value at ROC1-CUL1 CTD [1] (Table 5) is on record as “No inhibition”. Also, on ROC1-CUL1 CTD [1] (up to 80 μM), the E3 inhibition result is on record as “No inhibition”. For the same compound, on ROC1-CUL1 CTD [2], the “reduction of binding Kd relative to #33” value was over 30 fold. The equilibrium dissociation constant (Kd) at ROC1-CUL1 CTD [2] (setting [3]) stood at 57 µM.
Consider `O=c1c(Oc2ccccc2)c(C(F)(F)F)oc2c3c(ccc12)OCO3` [Compound 33-4, 7-phenoxy-8-(trifluoromethyl)-6H-[1,3]dioxolo[4,5-h]chromen-6-one], for which, at ROC1-CUL1 CTD [1] (Table 5, read-out: E3 inhibition IC50), the 50% inhibitory concentration (IC50) came out at 80 µM. Besides, the equilibrium dissociation constant (Kd) on ROC1-CUL1 CTD [2] (setting [3]) turned out to be 19 µM.
Regarding `COc1ccc2c(=O)c(-c3cnn(-c4ccc(F)cc4)c3)c(C(F)(F)F)oc2c1OC` [KH-3-141], the “E3 (CUL1) Inhibition EC50” value at E3 (CUL1) is reported as “Inactive”. On E3 (CUL4), the “E3 (CUL4) Inhibition EC50” value is recorded as “Inactive”. The “E3 binding ROC1-CUL4A Kd” value at ROC1-CUL4A (full length) is listed as “No detectable binding”. Also, the “Apoptosis EC50” value in the assay with cancer cells (Table 1) and with cancer cells (Table 6) was “Inactive” each time. In addition, in the assay on cancer cells, the induction of apoptosis entry is “unable to induce any detectable level of apoptosis”. For the same compound, the “E3 CRL4 Relative Inhibition” value at ROC1-CUL4A stood at 0%.
Take `COc1c(O)ccc2c(=O)c(-c3cnn(-c4ccccc4)c3)c(C(F)(F)F)oc12` [KH-4-119]: the “E3 (CUL4) Inhibition EC50” value on E3 (CUL4) is on record as “Inactive”. For the same compound, the “E3 binding ROC1-CUL4A Kd” value on ROC1-CUL4A (full length) was “no detectable binding activity”. For the same compound, the “Apoptosis EC50” value in the assay with cancer cells (Table 1) and in the assay with cancer cells (Table 6) was “Inactive” throughout. In the assay on cancer cells, the induction of apoptosis result is recorded as “unable to induce any detectable level of apoptosis”. Moreover, the “E3 CRL4 Relative Inhibition” value on ROC1-CUL4A is 13%.
Consider `CCCCn1cc(-c2c(C(F)(F)F)oc3c(O)c(O)ccc3c2=O)cn1` [MM-007], for which the Kd at ROC1-CUL4A (full length) came out at 38 µM. The compound also came in with an EC50 with cancer cells (Table 6) of 28 µM. The “E3 CRL4 Relative Inhibition” value on ROC1-CUL4A was 2%.
For `CCCn1cc(-c2c(C(F)(F)F)oc3c(O)c(O)ccc3c2=O)cn1` [MM-008], the Kd at ROC1-CUL4A (full length) was 26.4 µM. In the assay with cancer cells (Table 6), this compound had a concentration for a half-maximal effect (EC50) of 38 µM. For the same compound, the “E3 CRL4 Relative Inhibition” value on ROC1-CUL4A came to 0%.
Turning to `CCn1cc(-c2c(C(F)(F)F)oc3c(O)c(O)ccc3c2=O)cn1` [MM-009], the Kd at ROC1-CUL4A (full length) was over 400 µM. This compound yielded an EC50 in the assay on cancer cells (Table 6) of 66 µM. On ROC1-CUL4A, the “E3 CRL4 Relative Inhibition” value came out at 0%.
In the assay with MV4-11 tumors, `CNC(=O)c1cc(Oc2ccc(NC(=O)Nc3ccc(Cl)c(C(F)(F)F)c3)cc2)ccn1` [Sorafenib, reference compound] showed a tumor inhibition value of 46.02%.
As to `O=c1c(Oc2ccccc2)c(C(F)(F)F)oc2c(O)c(O)c(Br)cc12` [drawing 256], the IC50 at ROC1-CUL1 CTD [1] (Table 9, read-out: IC50 (FRET CUL1 assay)) came to 3.1 µM. On ROC1-CUL1 CTD [2] (Table 9, read-out: E3 Binding Kd (MST with CUL1 CTD)), the equilibrium dissociation constant (Kd) was determined as 1.89 ± 0.96 µM.

One may read the Kd as a measure of binding affinity in units of concentration. The IC50 is the concentration that inhibits the measured activity by half. The EC50 is the midpoint of the concentration-response curve.
